Patent publication US3995058A, “Treatment of ethanol withdrawal symptoms with levodopa” (priority 1975, dated 1976)
Where two headings read alike, the source gives them in different places.

Assays:
parkinsonism tremor = conditions: in vivo; cited from earlier work
[1] = system: ethanol withdrawal head-twitches; assay: Suppression of ethanol withdrawal head-twitches in mice habituated to ethanol; assay type: in vivo, mice (male T/O); conditions: for ED50: Mus musculus; for suppression of head-twitches: mice undergoing ethanol withdrawal
Method: (§1) Male T/O mice were habituated to ethanol by oral administration of aqueous ethanol solutions over three days. Ethanol was administered as a 40% w/v solution, the animals receiving 4 g/kg on the first day, 5 g/kg on the second day and 6 g/kg on the third day. Twenty-four hours after the third dose, approximately 12 hours after blood ethanol had fallen to zero, mice were observed over a period of 4 minutes in groups of five and the number of head-twitches were recorded for each animal. All animals received two doses of levodopa or vehicle, one 6 hours after the last dose of ethanol and the other one hour before observation of the animals. The amount of discoordination produced by each treatment was also determined by measuring the animals' ability to remain for 1 minute on a drum, 30 cm diameter, rotating at a speed of 1 rpm. Using a quantal method the median effective dose (ED50) to suppress head-twitches was determined. […] The ratio FD50 to ED50 gives the therapeutic ratio.
All drugs given one hour before observation except noradrenaline (35
minutes). Doses are expressed as mg/kg orally (P.O.), subcutaneously
(S.C.) or intracerebrally (I.C.V.). *Animals in levodopa experiment
received two doses of levodopa or vehicle, the first being given six hour
after the last dose of ethanol, the second one hour before observation.
The values indicated are computed from the doses of levodopa given on eac
(§2) occasion. The dose of each drug to discoordinate 50% of the animals (FD
(§3) 50) was compared with the dose that reduced to 50% the proportion of mice
(§4) showing head-twitches (ED 50).

[2] = Discoordination: ability to remain for 1 minute on a rotating drum; conditions: mouse, in vivo; for TD50 at 1 h: po
Method: as §1, §2, §3

[3] = Therapeutic ratio FD50/ED50 (discoordination against head-twitches); conditions: mouse, in vivo
Method: as §1, §2, §3, §4

discoordination = assay: Discoordination: ability to remain for 1 minute on a rotating drum; conditions: mouse, in vivo
Method: as §1, §2, §3

sleep = conditions: cited from earlier work
brain catecholamines = conditions: increasing doses of levodopa; cited from earlier work
depression = conditions: in vivo; cited from earlier work
[4] = system: delirium tremors or seizures; conditions: severe cases of physical dependence; cited from earlier work
withdrawal symptoms = assay: Production of withdrawal symptoms; conditions: in vivo

## NC(CO)C(=O)NNCc1cc(O)c(O)c(O)c1 (racemic) [N'-(D,L-seryl)-N"-(3,4,5-trihydroxybenzyl)-hydrazine]
Parkinsonism tremor
  control of parkinsonism tremor: useful in the control of parkinsonism tremor

## CC(N)Cc1ccccc1.O=S(=O)(O)O (centres unmarked) [Amphetamine sulphate]
[1]; sc, 1 h, read-out: ED 50 value to reduce head-twitches (with 95% fiducial limits)
  ED50: 7.18 mg/kg
[1]; subcutaneously
  suppression of head-twitches: complete suppression of head-twitches

## CCO [Ethanol, ethanol]
[1]; po, 1 h, P.O., one hour before observation, read-out: ED 50 value to reduce head-twitches (with 95% fiducial limits)
  ED50: 3990 mg/kg
[2]
  TD50 at 1 h: 2500 mg/kg
[3]; po
  selectivity ratio: 0.6

## N[C@@H](Cc1ccc(O)c(O)c1)C(=O)O [L-DOPA, L-β-3,4-dihydroxyphenylalanine]
[1]; po, P.O.*, two doses: 6 h after last ethanol and 1 h before observation, per-occasion dose, limits 63-1213, read-out: ED 50 value to reduce head-twitches (with 95% fiducial limits)
  ED50: 232 mg/kg
[1]; po, levodopa, text of summary, read-out: median effective dose (ED50) required to prevent or suppress withdrawal symptoms
  ED50: 231 mg/kg
[2]
  TD50 at 1 h: > 800 mg/kg
discoordination
  animals discoordinated: none of the animals were discoordinated
[3]; po
  selectivity ratio: 3.5
sleep; increasing numbers of doses
  effect on sleeping time with repeated doses: this effect became smaller with increasing numbers of doses
sleep; single dose 400 mg/kg
  increase in sleeping time: three-fold increase in sleeping time
Brain catecholamines
  shift of brain catecholamine levels: increasing shift of brain levels from dopamine to noradrenaline
depression
  therapeutic use in the treatment of depression: of questionable value

## NC[C@H](O)c1ccc(O)c(O)c1 [Noradrenaline]
[1]; central, 35 min, I.C.V., 35 minutes before observation, read-out: ED 50 value to reduce head-twitches (with 95% fiducial limits)
  ED50: 0.003 mg/kg
[1]; intracerebral injection
  suppression of head-twitches: complete suppression of head-twitches
[2]; icv or intrathecal
  TD50 at 35 min: > 0.01 mg/kg
[3]
  selectivity ratio: > 3.3

## CCCC(C)C1(CC)C(=O)NC(=O)NC1=O (centres unmarked) [Pentobarbitone sodium]
[1]; po, 1 h, read-out: ED 50 value to reduce head-twitches (with 95% fiducial limits)
  ED50: 231 mg/kg
[2]
  TD50 at 1 h: 91 mg/kg
[3]; po
  selectivity ratio: 0.4

## CN(C)CCCN1c2ccccc2Sc2ccc(Cl)cc21 [chlorpromazine]
[4]
  prevention of delirium tremors or seizures: ineffective to prevent delirium tremors or seizures

## CN(C)CCCN1c2ccccc2Sc2ccccc21 [promazine]
[4]
  prevention of delirium tremors or seizures: ineffective to prevent delirium tremors or seizures

## CC(N)(Cc1ccc(O)cc1)C(=O)O (stereo not drawn) [α-methyl p-tyrosine]
Withdrawal symptoms
  withdrawal symptoms produced: produces withdrawal symptoms that can be reduced by anti-serotonin agents

## CC(Cc1ccc(O)c(O)c1)(NN)C(=O)O (stereo not drawn) [α-methyl-dopa hydrazine]
Parkinsonism tremor
  control of parkinsonism tremor: useful in the control of parkinsonism tremor
